The source of these data is patent US9505834B2, “Methods for controlling the galactosylation profile of recombinantly-expressed proteins” (AbbVie Inc., priority 2011, dated 2016).

Assay [1] concerns adalimumab-producing CHO cell line. Description: Example 1 oligosaccharide analysis, batch shake flasks, CDM GIA-1. The assay is classed as cell-based, Chinese Hamster. The protocol: The studies were performed in either a batch process in shake flasks or a fed-batch process in 3 L bioreactors.
Growth and production media for the adalimumab-producing CHO cell line were prepared using a proprietary Life Technologies Gibco chemically defined media, GIA-1. […] All media were filtered through Corning 0.5 L or 1 L filter systems 0.22 μm Poly(Ether Sulfone) (PES) and stored at 4° C. until use.
The cell line utilized for both studies was generated from the adalimumab-producing CHO cell utilized in Example 3 by adapting it to chemically defined GIA-1 media for 7 (2 to 3 day each) passages in a combination of 250 mL and 500 mL Corning vented non-baffled shake flasks before freezing.
Upon thaw, for the batch shake flask study, cells were expanded for 3 to 5 (2 to 3 day each) passages in a combination of 250 mL and 500 mL Corning vented non-baffled shake flasks. Production cultures were initiated in duplicate 500 mL Corning vented non-baffled shake flasks (200 mL working volume) at an initial viable cell density (VCD) of approximately 0.5×10^6 cells/mL. Cultures were maintained on orbital shakers at 110 revolutions per minute (RPM) in a dry incubator at 35° C. and 5% CO2. The shake flask study was run in an extended batch mode by feeding a glucose solution (1.25% (v/v) of 40% solution) when the media glucose concentration fell below 3 g/L.
(§1) For all studies with CHO cell lines described throughout this invention, samples were collected daily and measured for cell density and viability using a Cedex cell counter. Retention samples for titer analysis via Poros A method were collected by centrifugation at 12,000 RPM for 5 min when the culture viability began declining. The cultures were harvested by collecting 125 mL aliquots and centrifuging at 3,000 RPM for 30 min when culture viability was near or below 50%. All supernatants were stored at −80° C. until analysis.
(§2) For all studies, the harvest samples were Protein A purified and prepared for the oligosaccharide assay using the following procedures. As a first step in the process of establishing the identity and quantifying the oligosaccharides, they are released from the protein by enzymatic digestion with N-glycanase. Once the glycans are released, the free reducing end of each glycan is labeled by reductive amination with a fluorescent tag, 2-aminobenzamide (2-AB). The resulting labeled glycans are separated by normal-phase HPLC (NP-HPLC) in acetonitrile: 50 mM ammonium formate, pH 4.4, and detected by a fluorescence detector. Quantitation is based on the relative area percent of detected sugars. Throughout this invention, the relative area percentages of the agalactosyl fucosylated biantennary oligosaccharides, denoted as NGA2F+NGA2F-GlcNAc sum, and the galactose-containing fucosylated biantennary oligosaccharides NA1F+NA2F sum are reported and discussed.
Galactose was supplemented at the following levels in production media: 0, 10, 20, 40, and 100 mM. […] Culture growth, productivity, and product quality data for control cultures is the average of the 3 experiments.

Assay [2] deals with adalimumab-producing CHO cell line #2. Description: Example 4 culture growth & productivity. The assay is classed as cell-based, Chinese Hamster. As to conditions: galactose 0 to 20 mM and/or manganese chloride 0 to 40 μM. The protocol:
as §1
Growth and production media for the adalimumab-producing CHO cell line #2 were prepared using a proprietary Life Technologies Gibco chemically defined media, GIA-1. […] All media were filtered through Corning 0.5 L or 1 L filter systems (0.22 μm PES) and stored at 4° C. until use.
Upon thaw, cells were expanded for 5 to 8 (2 to 3 day each) passages in a combination of 250 mL, 500 mL, and 1000 mL Corning vented non-baffled shake flasks. Production cultures were initiated in duplicate 500 mL Corning vented non-baffled shake flasks (200 mL working volume) at an initial VCD of approximately 0.5×10^6 cells/mL. Cultures were maintained on orbital shakers at 180 RPM in a dry incubator at 35° C. and 5% CO2. A glucose solution (1.25% (v/v) of 40% solution) was fed when the media glucose concentration fell below 3 g/L. […]

For assay [3], the system named is adalimumab-producing NSO cell line. Description: Example 6 oligosaccharide analysis, CDM PFBM-3/PFFM-4, fed-batch shake flasks. Format: cell-based.
From the text: as §2
Growth and production media for the adalimumab-producing NSO cell line were prepared using a proprietary Life Technologies Gibco chemically defined media, PFBM-3 basal medium plus PFFM-4 feed medium.
Upon thaw, cells were expanded for 3 to 5 (2 days each) passages in a combination of 250 mL, 500 mL, 1 L, 2 L and 3 L Corning vented non-baffled shake flasks. Production cultures were initiated in single 1 L Corning vented non-baffled shake flasks (240 mL initial working volume) at an initial VCD of approximately 2.5×10^5 cells/mL. Cultures were maintained on orbital shakers at 100 RPM in a dry incubator at 37° C. and 5% CO2. The shake flask study was run in a fed-batch mode and the culture was fed PFFM-4 as follows: 24 mL—day 2, 28.8 mL—day 4, 28.8 mL—day 6, and 28.8 mL—day 8.
Samples were collected every 2 days and measured for cell density and viability using a Cedex cell counter. Retention samples for titer analysis via Poros A method were collected daily beginning on Day 8 by centrifugation at 2,000 g for 10 min and then filtered through 0.2 μm PVDF syringe filter. The cultures were harvested on production day 10. The entire culture was collected, chilled on ice to approximately 0° C. for 1.5 hours, the cells and debris flocculated at pH 5.0 by the addition of 1M citric acid and held for 15 minutes, and centrifuged at 4000x g for 15 min at 5° C. The supernatant was passed through 0.20 μm Millipore Stericup PES filters, and, immediately post filtration, the acidified clarified cell-free harvest was neutralized with 2M Tris to pH 7.1±0.2. The cell free harvest was transferred to PETG bottles and stored at −80° C. until analysis.
Galactose was supplemented at the following levels in both production and feed media: 0, 1, 4, 5, and 10 mM.

[4] abbreviates: 100 μM manganese chloride alone.
Setting [5] is: 0.5 μM manganese chloride alone.

Turning to “Manganese (II) Chloride [manganese chloride]”, the “decrease in the NGA2F+NGA2F-GlcNac sum” value in assay [1] (40 μM manganese chloride alone) is recorded as 6%. Moreover, in assay [1] (setting [4]), the “maximum change in the NA1F+NA2F oligosaccharides” value is on record as 8% and the “maximum change in the NGA2F+NGA2F-GlcNac” value came out at 9%. The “culture growth, viability profiles, and harvest titer” value in assay [2] is “comparable to the control cultures”. In addition, the “decrease in the NGA2F+NGA2F-GlcNac sum” value in assay [3] (0.2 μM manganese chloride alone) is recorded as 12%. For the same compound, in assay [3] (setting [5]), the “increase in the NA1F+NA2F sum” value is recorded as 20% and the “maximum decrease in the NGA2F+NGA2F-GlcNac sum” value is 18%.

Take `O=C[C@H](O)[C@@H](O)[C@@H](O)[C@H](O)CO` [galactose, D(+)Galactose]: in assay [1] (40 mM galactose alone), the “decrease in the NGA2F+NGA2F-GlcNac sum” value was determined as 6%. Moreover, in assay [1] (100 mM galactose alone), the “maximum change in the NA1F+NA2F oligosaccharides” value is reported as 7% and the “maximum change in the NGA2F+NGA2F-GlcNac” value came to 7%. Also, the “culture growth, viability profiles, and harvest titer” value in assay [2] is given as “comparable to the control cultures”. In assay [3] (4 mM galactose alone), the “decrease in the NGA2F+NGA2F-GlcNac sum” value was found to be 2%. Further, in assay [3] (10 mM galactose alone), the “increase in the NA1F+NA2F sum” value came out at 15% and the “maximum decrease in the NGA2F+NGA2F-GlcNac sum” value worked out at 14%.
